Experimental data published in the NIST ThermoML archive (doi:10.1016/j.jct.2010.07.002).

Key:
[1] = 101.33 kPa, Liquid, Vibrating tube method
[2] = isobaric coefficient of expansion; details: 101.33 kPa, Liquid, Vibrating tube densimeter
[3] = xn = mol fraction of the nth substance listed; details: 101.3 kPa, Liquid, Vibrating tube method

C[N+](=O)[O-] [nitromethane]
Details | isobaric coefficient of expansion, 278.15 K | isobaric coefficient of expansion, 288.15 K | isobaric coefficient of expansion, 298.15 K | isobaric coefficient of expansion, 308.15 K | isobaric coefficient of expansion, 318.15 K | mass density, 278.15 K [kg/m3] | mass density, 288.15 K [kg/m3] | mass density, 298.15 K [kg/m3] | mass density, 308.15 K [kg/m3] | mass density, 318.15 K [kg/m3]
[1] | – | – | – | – | – | 1158.25 | 1144.75 | 1131.18 | 1117.53 | 1103.79
[2] | 0.00116 1/K | 0.00118 1/K | 0.0012 1/K | 0.00122 1/K | 0.00125 1/K | – | – | – | – | –

C[N+](=O)[O-] [nitromethane] + O
mass density [kg/m3], [3]
Details | 278.15 K | 288.15 K | 298.15 K | 308.15 K | 318.15 K
x2 = 0.001777 | 1158.13 | 1144.64 | 1131.07 | 1117.42 | 1103.68
x2 = 0.002859 | 1158.06 | 1144.56 | 1130.99 | 1117.35 | 1103.61
x2 = 0.004913 | 1157.94 | 1144.44 | 1130.87 | 1117.22 | 1103.48
x2 = 0.00632 | 1157.85 | 1144.35 | 1130.78 | 1117.13 | 1103.39
x2 = 0.008036 | 1157.74 | 1144.24 | 1130.67 | 1117.02 | 1103.29
x2 = 0.009712 | 1157.64 | 1144.14 | 1130.57 | 1116.92 | 1103.18
x2 = 0.01188 | 1157.5 | 1144 | 1130.43 | 1116.79 | 1103.06
x2 = 0.01446 | 1157.34 | 1143.85 | 1130.28 | 1116.63 | 1102.9
x2 = 0.01696 | 1157.19 | 1143.7 | 1130.13 | 1116.49 | 1102.75
x2 = 0.02033 | 1156.99 | 1143.5 | 1129.93 | 1116.29 | 1102.56
x2 = 0.02492 | 1156.72 | 1143.23 | 1129.66 | 1116.02 | 1102.3
x2 = 0.02911 | 1156.49 | 1143 | 1129.43 | 1115.79 | 1102.07

[2H]O[2H] [water-d2] + C[N+](=O)[O-]
mass density [kg/m3], [3]
Details | 278.15 K | 288.15 K | 298.15 K | 308.15 K | 318.15 K
x1 = 0.001672 | 1158.21 | 1144.71 | 1131.14 | 1117.49 | 1103.75
x1 = 0.002547 | 1158.18 | 1144.68 | 1131.11 | 1117.46 | 1103.73
x1 = 0.004545 | 1158.14 | 1144.64 | 1131.07 | 1117.42 | 1103.67
x1 = 0.00623 | 1158.09 | 1144.59 | 1131.02 | 1117.37 | 1103.63
x1 = 0.008336 | 1158.04 | 1144.54 | 1130.97 | 1117.32 | 1103.58
x1 = 0.009484 | 1158.01 | 1144.51 | 1130.94 | 1117.3 | 1103.56
x1 = 0.01177 | 1157.96 | 1144.46 | 1130.89 | 1117.24 | 1103.5
x1 = 0.01408 | 1157.9 | 1144.4 | 1130.83 | 1117.19 | 1103.45
x1 = 0.01703 | 1157.83 | 1144.34 | 1130.77 | 1117.12 | 1103.38
x1 = 0.02007 | 1157.77 | 1144.27 | 1130.7 | 1117.06 | 1103.32
x1 = 0.02274 | 1157.71 | 1144.21 | 1130.64 | 1117 | 1103.26
x1 = 0.02464 | 1157.67 | 1144.17 | 1130.6 | 1116.97 | 1103.22
x1 = 0.02688 | 1157.62 | 1144.12 | 1130.55 | 1116.92 | 1103.17
